Test results: US10012655B2, “Method for quantitating total HMGB1 protein in biological samples” (INSTITUT PASTEUR, priority 2008, dated 2018)

Legend:
iDCs [1] = assay: aNK-dependent maturation of iDCs in 24 h aNK-iDC coculture (CD86/HLA-DR flow cytometry); assay type: cell-based, human; conditions: uninfected iDCs, inhibitor 10 μg/ml added at initiation
Protocol: FIG. 3 (a)-(e). aNK-dependent maturation of HIV-1-infected iDCs is mediated by HMGB1 and involves RAGE. (a) Left panel: iDCs were cultured for 24 h either alone or with aNK cells, in the presence of blocking anti-HMGB1 antibodies (10 μg/ml) or glycyrrhizin (10 μg/ml). The maturation status of DCs was determined by flow cytometry with CD86 and HLA-DR—specific antibodies. Right panel: same experiment, but performed with HIV-1 infected iDCs. Data represent mean±sd of at least three independent experiments, and statistical comparisons were made with the non parametric Mann-Whitney test. * p<0.05. (b) iDC (10^6 cells/ml) were cultured for 48 h with increasing concentrations (1-10 μg/ml) of rh-HMGB1. Cells were then stained with anti-CD86, -HLA-DR, -CD80, -CD83, DC-LAMP and -CD40 antibodies and analyzed by flow cytometry. (c) Influence of rh-HMGB1 on cytokine and chemokine production (determined by MAP) by DCs. iDCs (10^6 cells/ml) were incubated for 48 h in medium or in presence of rh-HMGB1 (1 or 10 μg/ml). As a positive control, iDCs were stimulated with LPS (DC0). […] (e) iDC, DC0, uninfected or HIV-1-infected iDC cocultured for 24 h with aNK cells, were incubated with rh-HMGB1 (1 μg/ml) and subsequently stained with anti-RAGE antibodies and analyzed by flow cytometry. […]

R5-HIV-1Ba-L = assay: HIV-1 replication in infected iDCs, p24 ELISA in culture supernatant; assay type: cell-based; conditions: inhibitor 10 μg/ml, 3 days
Protocol: FIGS. 6 (a), (b) and (c). Exogenous rh-HMGB1 triggers HIV-1 and HIV-2 replication in iDC. (a) HIV-1-infected iDC were cultured alone or in the presence of aNK cells for 3 days. Rh-HMGB1 (1 μg/ml) was added in some cultures. HIV replication was measured by p24 quantification in culture supernatant (b) HIV1-infected iDC were cultured alone or in the presence of aNK cells for 3 days. Blocking anti-HMGB1 antibodies (10 μg/ml) or glycyrrhizin (10 μg/ml) were added at culture initiation. HIV replication was measured by p24 quantification in culture supernatant. The mean±sd of three independent experiments is shown. Statistical comparisons were made with the non parametric Mann-Whitney test. * p<0.05; (c) HIV-2-infected iDC were cultured alone or in the presence of aNK cells for 3 days. Rh-HMGB1 (1 μg/ml) was added in some cultures. HIV replication was measured by p24 quantification in culture supernatant.
Virus stock preparation was prepared by amplification of R5-HIV-1Ba-L on MDM from healthy donors. Viral stock was then clarified by centrifugation prior to determination of HIV1 p24 concentration. iDCs were plated in 96-well culture plates at 200,000 cells/well and incubated for 3 hours at 37° C. in a 5% CO2 atmosphere with R5-HIV-1BAL at various concentrations (0.001 to 10 ng p24/ml). Cells were harvested, washed four times with media containing 10% FCS and, when indicated, rNK or aNK cells were added at a NK:DC ratio of 1:5, unless otherwise indicated. NK-DC cocultures lasted 24 h before analysis of the maturation stage of DCs and/or quantification of viral production. In some experiments (FIG. 6), HIV-1 infected iDCs were incubated alone or with aNK cells for 3 days, in the presence of rh-HMGB1 (1 μg/ml) (R&DSystems), and in some cultures in the presence of rabbit antiHMGB1 Abs (10 μg/ml) (Abcam, Cambridge, UK) or Glycyrrhizin (10 μg/ml).
The concentration of HIV-1 in the supernatant of infected cell cultures was determined by measuring the amount of p24 protein by ELISA (Ingen, Belgium). DNA from cells was extracted using the GIAamp DNA Blood Mini Kit (Qiagen, Basel, Switzerland) and quantified HIV-1 proviral load by RT-PCR as described previously54. The frequency of HIV-1-infected cells was determined by flow cytometry to detect intracellular p24 molecule. Cells were surface stained with antibodies specific for CD40 (BD Biosciences, San Jose, Calif.) to target DC and intracellular stained with p24-specific antibodies (Coulter). Stained cells were fixed in 1% PFA, immediately acquired on a FACScalibur (Becton Dickinson) and analyzed with FlowJo software. In some experiments infected DCs were imaged, after immunofluorescence, by laser scanning confocal microscopy.

iDCs [2] = assay: aNK-induced apoptosis of iDCs at NK:DC ratio 5:1 (7-AAD assay); assay type: cell-based, human
Protocol: (a) CD56^+ NK cells were purified from the blood of healthy donors. NK cells were maintained in culture with suboptimal concentrations of interleukin-2 (IL-2) (100 ng/ml) (rNK cells) or activated (aNK cells) by the addition PHA (10 μg/ml) and IL-2 (10 μg/ml) to cultures. […] Data represent the mean±sd of three independent experiments. […] In some cases, iDCs were cocultured with aNK cells at the NK:DC ratio of 5:1. […] Cell death was then quantified with the 7-AAD assay. […] (g) iDCs were cultured for 24 h either alone or with aNK cells (NK:DC ratio of 5:1), in the absence or presence of blocking anti-DR4 antibodies (250 ng/ml). The viability status of DCs was determined by flow cytometry with the 7-AAD assay. […]
FIGS. 11(a)-(b). […] Cell death was then quantified with the 7-AAD assay. […]
rNK or aNK were cocultured during 24 h with iDCs or mDCs at a ratio of 1:5 (2×105 NK+10×105 DC/1 ml), unless otherwise indicated. DC survival was determined with the 7-AAD assay, as described previously55. […]
Immature DCs (iDCs) were prepared from sorted monocytes from healthy donors, cultured for 6 days in the presence of IL-4 and GM-CSF. […] The influence of NK-DC interaction on DC's maturation and apoptosis was analyzed using multiparametric flow cytometry, combining 7-AAD staining with membrane and intracellular staining with mAbs specific for HLA-DR, DC-SIGN, CD83, CD86, DR4, mTRAIL, etc.

HIV-infected DCs = assay: TRAIL-induced apoptosis of iDCs and HIV-infected DCs (7-AAD assay); assay type: cell-based, human; conditions: 24 h with 1-1000 ng/ml rhs-TRAIL
Protocol: FIGS. 10(a)-(d). R5-HIV-infected DCs are resistant to killing by aNK cells, although TRAIL secretion persists in the presence of HIV-1 (a) iDCs were either infected with R5-HIV-1BaL (1 ng/ml of p24) for 24 h or uninfected, and after several washes, they were incubated with aNK cells at the ratios of 1:5 and 5:1. iDCs viability was assayed with the 7-AAD test by flow cytometry. Living cells are 7-AAA^−, apoptotic cells 7-AAD^+, and apoptotic debris are 7-AAD^−FSC^low. Dot plots represent one of at least three independent experiments. […] DCs were uninfected (iDCs), infected with R5-HIV-1 at 1 ng/ml of p24 (HIV-DCs) or stimulated with LPS for 48 h. Cells were then stained with CD86 and HLA-DR. Data represent one of at least three independent experiments. (c) TRAIL secretion is not affected by HIV infection of iDCs. 24 h cell-free culture supernatants of iDCs, HIV-infected DCs (10^6/ml), aNK cells-iDCs cocultures (ratio 5:1) and aNK cells-HIV-infected DCs cocultures (ratio 5:1) were tested for soluble TRAIL (sTRAIL) content by ELISA. Data represent the mean±sd of three independent experiments. […] Cell death was then quantified with the 7-AAD assay. The mean±sd of three independent experiments was presented.

With `CC1(C)[C@@H](O[C@H]2O[C@H](C(=O)O)[C@@H](O)[C@H](O)[C@H]2O[C@@H]2O[C@H](C(=O)O)[C@@H](O)[C@H](O)[C@H]2O)CC[C@]2(C)[C@H]3C(=O)C=C4[C@@H]5C[C@@](C)(C(=O)O)CC[C@]5(C)CC[C@@]4(C)[C@]3(C)CC[C@@H]12` [glycyrrhizin, reference compound] the “proportions of mature DCs (CD86bright HLA-DRbright)” value (iDCs [1]) was “reduced the proportions of mature DCs (identified as CD86brightHLA-DRbright) to the baseline level observed without aNK cells”, the “HIV-1 production (p24 in supernatant)” value (R5-HIV-1Ba-L; infected DC cocultured with aNK cells) was “abrogated HIV-1 production” and the “HIV-1 production (p24 in supernatant)” value (R5-HIV-1Ba-L; infected DC cultured alone) was “abrogated HIV-1 production”. The “resistance of HIV-1-infected iDCs to aNK-induced apoptosis (inhibition assays)” value (iDCs [2]; HIV-1-infected iDCs, NK:DC ratio 5:1, AZT added at infection, inhibitors at coculture initiation) was “found dependent on HMGB1”.

In the case of `C/C=C/[C@H]1O[C@@](O)([C@@H](C)[C@H](O)[C@H](C)[C@H]2OC(=O)/C(OC)=C/C(C)=C/[C@@H](C)[C@@H](O)[C@@H](CC)[C@@H](O)[C@H](C)C/C(C)=C/C=C/[C@@H]2OC)C[C@@H](O[C@H]2C[C@@H](O)[C@H](OC(N)=O)[C@@H](C)O2)[C@@H]1C` [Concanamycin A], the “NK-dependent iDCs apoptosis” value (iDCs [2]; uninfected iDCs, aNK cells, NK:DC ratio 5:1, 24 h) is reported as “no effect”.

B1: rhs-TRAIL: recombinant human soluble TRAIL (protein, UniProt P50591 39-281, looked up)
extracellular domain: TNELKQMQDKYSKSGIACFLKEDDSYWDPNDEESMNSPCWQVKWQLRQLVRKMILRTSEETISTVQEKQQNISPLVRERGPQRVAAHITGTRGRSNTLSSPNSKNEKALGRKINSWESSRSGHSFLSNLHLRNGELVIHEKGFYYIYSQTYFRFQEEIKENTKNDKQMVQYIYKYTSYPDPILLMKSARNSCWSKDAEYGLYSIYQGGIFELKENDRIFVSVTNEHLIDMDHEASFFGAFLVG
modifications: extracellular domain
In the case of B1, the “cell death of HIV-1-infected DCs” value (HIV-infected DCs) is reported as “still susceptible to TRAIL-induced apoptosis”.
